Measurements as given in PMC1716192, “A Plant-Derived Morphinan as a Novel Lead Compound Active against Malaria Liver Stages” (PLoS Medicine, 2006).

Key:
[1] = test system: P. yoelii (265 BY strain) hepatic stages; experiment: In vitro assay for P. yoelii liver stage inhibition in primary mouse hepatocytes; type: cell-based; conditions: for IC50 / IC90: 48 h
Procedure: (§1) P. yoelii (265 BY strain) and P. falciparum (NF 54 strain) sporozoites were obtained by dissection of infected Anopheles stephensi salivary glands. Primary mouse hepatocytes were isolated as previously described and seeded in eight-well Lab-Tek plastic chamber slides (VWR, Fontenay-sous-Bois, France) previously coated with rat-tail collagen I (BD Biosciences, Le Pont de Claix, France) at a density of 10^5 cells per well. Mouse hepatocytes were cultured at 37 °C in 5% CO2 in William's E medium supplemented with 10% fetal calf serum, 1% L-glutamine, 1% sodium pyruvate, 1% insulin-transferrin-selenium, 1% nonessential amino acids, and 1% penicillin-streptomycin (all from Invitrogen, Cergy-Pontoise, France), for 24 h before inoculation of P. yoelii sporozoites (10^5 per well). Human liver fragments were collected following informed consent provided from patients undergoing a partial hepatectomy. The collection and use of these tissues were undertaken in accordance with French Government ethical regulations. Primary human hepatocytes were isolated from the healthy parts of these liver biopsies as previously described. Human hepatocytes were seeded in LabTek plastic chamber slides coated with collagen, at a density of 1.8 × 10^5 cells per well and cultured at 37 °C in 5% CO2 in the same medium as above, supplemented with 10^−7 M dexamethasone (Sigma) and 2% DMSO after complete cell adherence (12–24 h), for at least 48 h before inoculation of P. falciparum sporozoites (10^5 per well). For a standard assay, the plant extract, the purified compound, or primaquine was solubilized in DMSO, further diluted in culture medium (equal DMSO concentrations of <0.3% per well), and then added to hepatocyte cultures at the time of sporozoite inoculation. Three hours later, after sporozoite penetration into hepatocytes, cultures were washed and further incubated in the presence of the drug. Culture medium containing the appropriate drug concentration was changed daily until 48 h for P. yoelii, or until 5 d for P. falciparum. Parasites were quantified on the last day of incubation. For the in vitro timing experiments, tazopsine treatment of P. yoelii and P. falciparum cultures was undertaken for different periods during the cultivation: 0 h to 3 h, 3 h to 24 h, or 24 h to 48 h after P. yoelii sporozoite inoculation (quantification at 48 h), or 0 h to 2 d, or 3 d to 5 d after P. falciparum sporozoite inoculation (quantification at 5 d). […] Cells were stained with Evans Blue (0.4%), and parasites and cells nuclei were stained with 1 μg/ml of diamidino-phenylindole (DAPI; Sigma). Parasite numbers were counted under a fluorescence microscope with a 25× light microscope objective.
(§2) IC50 and TC50 were calculated by nonlinear regression using four-parameter logistic curves on the SigmaPlot 10.0 software (http://www.systat.com). Each IC50 or TC50 is expressed as a mean between two independent experiments, followed by the standard error of the mean.

[2] = test system: P. falciparum (NF 54 strain) hepatic stages; experiment: In vitro assay for P. falciparum liver stage inhibition in primary human hepatocytes; type: cell-based; conditions: for IC50 / IC90: 120 h
Procedure: as §1, with “objective. IC50 values, the drug concentration at which a 50% reduction in the number of parasites was observed, as compared to the number in the DMSO control cultures, were derived from two independent experiments in which each concentration was tested in triplicate wells.” for “objective.”
as §2

[3] = Plasmodium falciparum, Hepatocyte

| Structure (SMILES) | phase of hepatic development most susceptible to inhibition ([1]; P. yoelii, exposure 0-3 h, 3-24 h or 24-48 h) | IC80 ([1]; Plasmodium yoelii, Hepatocyte) [µM] | IC50 ([1]; Plasmodium yoelii, Hepatocyte) [µM] | IC90 ([1]; Plasmodium yoelii, Hepatocyte) [µM] | concentration giving total inhibition ([1]; cultured P. yoelii hepatic stages) [µM] | Sporozoite invasion and differentiation into early hepatic stages ([1]; exposure 0-3 h postinfection, suboptimal inhibitory concentrations) | phase of hepatic development most susceptible to inhibition ([2]; P. falciparum, exposure 0 h-2 d or 3 d-5 d) | concentration at which parasite development fully inhibited ([2]; P. falciparum-infected primary human hepatocyte cultures) [µM] | IC80 [2, 3] [µM] | IC50 [2, 3] [µM] | IC90 [2, 3] [µM] | size of surviving hepatic parasites versus control cultures ([2]; suboptimal inhibitory concentrations, 5 d) |
| --- | --- | --- | --- | --- | --- | --- | --- | --- | --- | --- | --- | --- |
| COC1=C2[C@H]3NCC[C@]2(C[C@H](O)[C@@H]1O)c1c(ccc(OC)c1O)[C@H]3O [Tazopsine, tazopsine] | most pronounced during the early developmental stages of the hepatic parasite (3 to 24 h) | 5 | 3.1 ± 0.1 | 6.3 ± 0.8 | ≥ 7.1 | not affected | most susceptible to inhibition during the early stage of trophozoite development | ≥ 28 | 10 | 4.2 ± 0.1 | 18.3 ± 2.8 | significantly smaller |
| COC1=C2[C@@H]3[C@H](O)c4ccc(OC)c(O)c4[C@]2(CCN3C2CCCC2)C[C@H](O)[C@@H]1O [NCP-tazopsine, N-cyclopentyl-tazopsine] |  |  | 3.3 ± 0.05 | 5.2 ± 1.4 |  |  |  |  |  | 42.4 | 95.4 ± 6.6 |  |
